Values quoted from earlier work, collected in patent US9381220B2, “Sceletium extract and uses thereof” (H. L. Hall & Sons Limited, priority 2009, dated 2016).

Columns and labels:
PDE4 = conditions: Napoletano et al. 2001
[1] = fermentation, exposure to light, exposure to heat, aqueous medium
5-HT uptake = 5-HT uptake (Homo sapiens, UniProt P31645); conditions: as described in U.S. Pat. No. 6,288,104
Sequence of 5-HT uptake (P31645 whole entry): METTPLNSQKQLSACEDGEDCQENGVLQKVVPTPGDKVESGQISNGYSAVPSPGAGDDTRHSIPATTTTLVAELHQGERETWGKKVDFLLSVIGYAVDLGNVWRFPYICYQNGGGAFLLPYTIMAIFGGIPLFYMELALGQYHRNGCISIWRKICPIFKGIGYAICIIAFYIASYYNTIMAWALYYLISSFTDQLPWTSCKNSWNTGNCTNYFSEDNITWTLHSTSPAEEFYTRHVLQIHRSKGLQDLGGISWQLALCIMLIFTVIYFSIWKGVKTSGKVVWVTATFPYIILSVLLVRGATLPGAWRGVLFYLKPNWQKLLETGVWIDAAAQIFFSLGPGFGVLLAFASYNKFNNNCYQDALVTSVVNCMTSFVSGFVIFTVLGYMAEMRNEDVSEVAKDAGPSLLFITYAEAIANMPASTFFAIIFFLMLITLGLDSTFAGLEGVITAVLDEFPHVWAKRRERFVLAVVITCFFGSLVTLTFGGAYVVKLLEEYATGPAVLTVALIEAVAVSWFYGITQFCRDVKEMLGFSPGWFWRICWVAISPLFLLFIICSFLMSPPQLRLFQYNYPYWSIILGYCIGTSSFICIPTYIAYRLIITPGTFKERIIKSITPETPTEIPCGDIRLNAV

COc1ccc(C23CCC(=O)CC2N(C)CC3)cc1OC.Cl (stereo not drawn) [Mesembrine hydrochloride]
PDE4 inhibition (PDE4): weak PDE4 inhibitor

COc1ccc([C@@]23CCC(=O)C[C@@H]2N(C)CC3)cc1OC [mesembrine]
stability [1]: unstable

COc1ccc(C23C=CC(O)CC2N(C)CC3)cc1OC (stereo not drawn) [mesembrenol]
5-HT uptake inhibitory activity (5-HT uptake): potent 5-HT uptake inhibitory activity
